This note sets out measurements from patent US8911771B2, “Fluid application device and method” (Otsuka America Pharmaceutical, Inc., priority 2004, dated 2014).

The assay concerns wide range of bacteria (1050 organisms; clinical isolates from a number of bacterial and fungal species). The assay is described as follows: in vitro minimum inhibitory concentration (MIC) testing. The format is cell-based. Conditions: concentration of olanexidine solution inhibiting >95% of 1050 organisms. The source says:
The bacteria included in the MIC testing study included clinical isolates from a number of bacterial and fungal species. The MIC method is a widely accepted methodology that is useful for determining and comparing in vitro antimicrobial activity, while the Pig Skin Model is useful for determining activity under simulated conditions of use. The following chart summarizes the results obtained with the Pig Skin Model: […]

For `CCCCCCCCNC(=N)NC(=N)NCc1ccc(Cl)c(Cl)c1` [olanexidine, 1-(3,4-dichlorobenzyl)-5-octylbiguanide], the MIC (in general, the lowest concentration found to suppress growth) was at most 32 µg/mL.
